Measurements: patent US6365628B1 (Thia Medica AS, priority 1998, dated 2002)

What was measured:
Wistar rats = test: Lipid lowering effect in normal Wistar rats (Example 4); assay type: in vivo, rat; details: gavage once daily for 7 days
Method: Phospholipids were measured by the enzymatic method of bioMérieux, Marcy-l {grave over ( )}Etoile, France, Triacylglycerol by the Technicon Method no. SA4-0324L90, USA and Cholesterol by the Technicon Method no. SA4-0305L90, USA.
Male Wistar rats, weighing 180-200 g at the start of the experiment, were housed individually in metal wire cages in a room maintained at 12 h light-dark cycles and a constant temperature of 20±3° C. The animals were acclimatised for one week under these conditions before the start of the experiments.
TTA, TSA and eicosapentaenoic acid (EPA) were suspended in 0.5% (w/v) carboxymethyl cellulose (CMC). Six animals were used for each treatment, and a 0.5% CMC solution was administrated to the rats as control. After administration of the test compound, the rats were fasted for 12 hours and anaesthetised with haloethan. The EPA and the fatty acid derivatives were administered by gastric intubation (gavage) once daily for 7 days. Blood samples were collected by cardiac puncture, and lipid concentrations in plasma were determined as outlined in the method section.

male Wistar rats = test: Hepatic levels of triacylglycerol in rats fed fatty acid analogues (Example 17); assay type: in vivo, rat; details: no prefeeding
Text: Even an increased hepatic level of triacylglycerol may be relieved by TTA. Feeding rats with an inhibitor of fatty acid oxidation will increase the level of hepatic triacylglycerol resulting in fatty liver. Tetradecyl-4-thia propionic acid (TTP) is a fatty acid analogue with a sulphur atom in the 4 position. This analogue inhibits the β-oxidation of fatty acids due to the formation of a mitochondrial inhibitor. Feeding rats with this analogue results in the formation of fatty. However, if the rats are fed with a combination of TTA and TTP, the formation of fatty liver is avoided (Table 8). This provides evidence that TTA may be used for the treatment of conditions with an increased hepatic level of triacylglycerol. Male Wistar rats had free access to water and rat maintenance chow. They were fed palmitic acid or fatty acid analogues suspended in 0.5% CMC for 6 days. In some experiments TTA or TTP were fed for 3 days before feeding both for 6 days. At the end of the experiment the rats were fasted overnight, killed, the liver removed and homogenized. Triacylglycerol was measured in the homogenate.

[1] = system: rat liver mitochondrial β-oxidation; test: Mitochondrial β-oxidation in rat liver, fatty acid analogues with S in different positions (Example 18); assay type: in vivo; details: [1-14C]-palmitoyl-L-carnitine as substrate
Method: Freshly isolated livers from individual old Zucker rats, were homogenised in ice-cold sucrose buffer (0.25 M sucrose, 10 mM HEPES (pH 7.4) and 2 mM EDTA). Post-nuclear and mitochondrial fractions were prepared using preparative differential centrifugation according to DeDuve et al. (De Duve, C., et al., Biochem. J., 60, 604-617 1955.) Modifications, purity and yield were as described earlier (Garras, A., et al., Biochim. Biophys. Acta, 1255, 154-160 1995.). Acid soluble products were measured in post-nuclear and mitochondrial enriched fractions, using [1-^14C]-palmitoyl-CoA and [1-^14C]-palmitoyl-L-carnitine (Radiochemical Centre, Amersham, England) as substrates as described earlier (Willumsen, N., et al., J. Lipid Res., 34, 13-22 1993. Carnitine palmitoyltransferase-I and -II activities were measured in the post-nuclear and mitochondrial fractions essentially as described by Bremer (Bremer, J., Biochim. Biophys. Acta, 665, 628-631 1981.) and 3-hydroxy-3-methylglutharyl-CoA synthase was measured according to Clinkenbeard et al. (Clinkenbeard, K. D., et al., J. Biol. Chem, 250, 3108-3116 1975.) in the mitochondrial fractions.
The mitochondrial β-oxidation is measured as in example 16 with the use of [1-^14C]-palmitoyl-L-carnitine as substrates.

[2] = system: chinese hamster ovary cells; test: Chromosomal aberrations in cultured chinese hamster ovary cells; assay type: cell-based; details: doses tested 12-140 mg/ml
Escherichia coli = test: Test for mutagenic activity in Escherichia coli strains; assay type: cell-based; details: 3-1000 mg/plate (TTA) 2-5000 mg/plate (TSA)
Text: (§1) Tests for mutagenic activity have been performed by Covance Laboratories Limited, England. […] Furthermore, TTA was not mutagenic when tested in mouse lymphoma cells […] L5178Y.

Salmonella typhimurium = test: Test for mutagenic activity in Salmonella typhimurium strains; assay type: cell-based; details: 3-1000 mg/plate (TTA) 2-5000 mg/plate (TSA)
Text: as §1

[3] = dose 1500 mg/day/kg body weight

## CC/C=C\C/C=C\C/C=C\C/C=C\C/C=C\CCCC(=O)O [EPA, eicosapentaenoic acid, reference compound]
Wistar rats; [3]
  Plasma lipids (% reduction of control) cholesterol: 18 % reduction of control
  Plasma lipids (% reduction of control) triglycerides: 20 % reduction of control

## CCCCCCCCCCCCCCSCCC(=O)O
Male Wistar rats; TTP 300 mg/kg/day for 6 days
  Hepatic triacylglycerol TG (μmol/g): 95,4 ± 14,7 μmol/g

## CCCCCCCCCCCCCCCC(=O)O [Palm, palmitic acid]
[1]
  Mitochondrial β-oxidation activity (nmol/min/mg protein): 0,47 ± 0,06 nmol/min/mg protein
Male Wistar rats; palmitic acid for 6 days
  Hepatic triacylglycerol TG (μmol/g): 10,9 μmol/g

## Tetradecylselenoacetic acid [TSA]
[2]
  Chromosomal aberrations in cultured chinese hamster ovary cells: no aberrations were induced
Wistar rats; dose 15 mg/day/kg body weight
  Plasma lipids (% reduction of control) cholesterol: 20 % reduction of control
  Plasma lipids (% reduction of control) triglycerides: 25 % reduction of control
Escherichia coli
  Induction of mutations in strains of Escherichia coli: did not induce mutations
Salmonella typhimurium
  Induction of mutations in strains of Salmonella typhimurium: did not induce mutations
